# Reference: ChEMBL document CHEMBL3580537, “Neristatin 1 provides critical insight into bryostatin 1 structure-function relationships” (J Nat Prod, 2015)
# Activity calls are given as the source filed them. The calls are words filed in the database; no cut-off is given here.
# Key:
# U-937 [1] = assay: Inhibition of PMA-induced TNFalpha secretion in human U937 cells at 0.01 nM to 10000 nM by real time qPCR method; type: functional, cell-based
# [2] = Growth inhibition of human Toledo cells after 72 hrs by particle counter based cell counting assay; type: functional
# U-937 [3] = assay: Induction of cell attachment of human U937 cells at 0.1 nM to 1000 nM after 60 hrs by particle counter based cell counting assay; type: functional
# [4] = biological target: Protein kinase C alpha type (Homo sapiens, UniProt P17252); assay: Inhibition of [20-3H]phorbol 12,13-dibutyrate binding to human PKCalpha by scintillation counting based poly(ethylene) glycol precipitation assay
# U-937 [5] = assay: Inhibition of PMA-induced cell attachment of human U937 cells at 1000 nM after 60 hrs by particle counter based cell counting assay; type: functional
# U-937 [6] = assay: Induction of TNFalpha secretion in human U937 cells at 0.01 nM to 10000 nM by real time qPCR method; type: functional, cell-based
# Toledo [7] = assay: Potency index, ratio of IC50 for Merle-43 to IC50 for test compound against human Toledo cells after 72 hrs by particle counter based cell counting assay; type: functional
# U-937 [8] = assay: Suppression of PMA-induced growth inhibition of human U937 cells at 1000 nM after 72 hrs by particle counter based cell counting assay; type: functional
# U-937 [9] = assay: Growth inhibition of human U937 cells at 0.1 nM to 1000 nM after 72 hrs by particle counter based cell counting assay; type: functional
# U-937 [10] = assay: Induction of cell attachment of human U937 cells at 0.1 nM to 3000 nM after 60 hrs by particle counter based cell counting assay; type: functional
# U-937 [11] = assay: Induction of TNFalpha secretion in human U937 cells at 0.01 nM to 10000 nM by real time qPCR method relative to PMA; type: functional
# U-937 [12] = assay: Growth inhibition of human U937 cells at 1000 nM in presence of 10 nM PMA after 72 hrs by particle counter based cell counting assay; type: functional
# U-937 [13] = assay: Growth inhibition of human U937 cells at 0.1 nM to 3000 nM after 72 hrs by particle counter based cell counting assay; type: functional
# Toledo [14] = assay: Potency index, ratio of IC50 for neristatin-1 to IC50 for test compound against human Toledo cells after 72 hrs by particle counter based cell counting assay; type: functional
Compound,inhibition (U-937 [1]),IC50 [2] [nM],Activity (U-937 [3]),Ki [4] [nM],inhibition (U-937 [5]),Activity (U-937 [6]),Ratio IC50 (Toledo [7]),inhibition (U-937 [8]),growth inhibition (GI) (U-937 [9]),Activity (U-937 [10]),Activity (U-937 [11]) [%],growth inhibition (GI) (U-937 [12]),growth inhibition (GI) (U-937 [13]),Ratio IC50 (Toledo [14])
COC(=O)/C=C1/C[C@H]2C[C@]3(O)O[C@H](C[C@@H](O)CC(=O)O[C@H](C)[C@H](O)C[C@@H]4C[C@@H]5CC(=O)O[C@@]5(O4)C(=O)C(C)(C)/C=C/[C@@H](C1)O2)C[C@H](OC(=O)C(C)(C)C)C3(C)C,Active,1.58,inactive,21.2,Active,inactive,2.5,Active,inactive,,,,,
CCCCCCCC(=O)O[C@H]1/C(=C/C(=O)OC)C[C@H]2C[C@@H](O)[C@@H](C)OC(=O)C[C@H](O)C[C@@H]3C[C@H](OC(C)=O)C(C)(C)[C@](O)(CCOC(=O)/C=C/C(C)(C)[C@]1(O)O2)O3,,,,,,,,,,Active,60,Active,Active,
CCC/C=C/C=C/C(=O)O[C@H]1/C(=C/C(=O)OC)C[C@H]2C[C@H]([C@@H](C)O)OC(=O)C[C@H](O)C[C@@H]3C[C@H](OC(C)=O)C(C)(C)[C@](O)(C[C@@H]4C/C(=C/C(=O)OC)C[C@H](/C=C/C(C)(C)[C@]1(O)O2)O4)O3 [BRYOSTATIN 1],Active,,inactive,0.48,Active,inactive,,Active,inactive,,,,,17
CCCCCCCCCCCCCC(=O)O[C@@H]1[C@@H](C)[C@@]2(O)[C@@H](C=C(CO)C[C@]3(O)C(=O)C(C)=C[C@@H]23)[C@@H]2C(C)(C)[C@]12OC(C)=O [PHORBOL MYRISTATE ACETATE],,,Active,,,Active,,,50%,,,,,
